Assay results reported in patent publication US5478812A, “Chromanol glycoside and method for production thereof” (CCI Corporation, priority 1993, dated 1995).
Where two headings read alike, the source gives them in different places.

Key:
[1] = hydroperoxidation of methyl linoleate via radical chain reaction in hexane/isopropyl alcohol; format: biochemical; conditions: 0.1 μmol antioxidant in 1.1 ml hexane/isopropyl alcohol 1:1; 37 °C; oil-soluble radical generator; in words
Excerpt: Antioxidant activity on the chromanol glycoside obtained in Examples 1 to 5 [6-hydroxy-2,5,7,8-tetramethyl chroman-2-methyl-α-D-glucopyranoside represented by the aforementioned formula (4)], the chromanol glycoside obtained in Examples 6 to 8 [6-hydroxy-2,5,7,8-tetramethyl chroman-2-ethyl-α-D-glucopyranoside represented by the aforementioned formula (7)], the chromanol glycoside obtained in Examples 4 and 5 [6-hydroxy-2,5,7,8-tetramethyl chroman-2-methyl-α-D-maltopyranoside represented by the aforementioned formula (5)], and the chromanol glycoside obtained in Example 8 [6-hydroxy-2,5,7,8-tetramethyl chroman-2-ethyl-α-D-maltopyranoside represented by the aforementioned formula (8)] was investigated by measuring the hydroperoxidation of methyl linoleate via radical chain reaction. Specifically, this test was performed by incubating 132 μmol of methyl linoleate, 16.5 μmol of an oil-soluble radical generator [2,2'-azo-bis(2,4-dimethyl valeronitrile)], 0.1 μmol of antioxidant in 1.1 ml of a hexane/isopropyl alcohol (1:1 v/v), and the mixture was incubated at 37° C. At regular intervals, aliquots of the reaction mixture were withdrawn and the amount of methyl linoleate hydroperoxides were measured by HPLC. […] EXAMPLE 10

[2] = antioxidant activity using liposomal membranes (phosphatidylcholine hydroperoxides); format: biochemical; conditions: 0.1 μmol antioxidant in 1.1 ml 10 mM tris-HCl buffer pH 7.4; water-soluble radical generator; in words
Excerpt: Antioxidant activity on the chromanol glycoside obtained in Examples 1 to 5 [6-hydroxy-2,5,7,8-tetramethyl chroman-2-methyl-α-D-glucopyranoside represented by the aforementioned formula (4)[, the chromanol glycoside obtained in Examples 6 to 8 [6-hydroxy-2,5,7,8-tetramethyl chroman-2-ethyl-α-D-glucopyranoside represented by the aforementioned formula (7)], the chromanol glycoside obtained in Examples 4 and 5 [6-hydroxy-2,5,7,8-tetramethyl chroman-2-methyl-α-D-maltopyranoside represented by the aforementioned formula (5)], and the chromanol glycoside obtained in Example 8 [6-hydroxy-2,5,7,8-tetramethyl chroman-2-ethyl-α-D-malto-pyranoside represented by the aforementioned formula (8)] was investigated by using a liposonal membranes. Specifically, this test was performed by adjusting a reaction solution consisting of 5.5 μmol of a multilameller liposomes of egg yolk phosphatidylcholine, 16.5 μmol of a water-soluble radical generator [2,2'-azo-bis(2-amidinopropane) dihydrochloride], and 0.1 μmol of antioxidant in 1.1 ml of a 10 mM tris-HCl buffer (pH 7.4). At regular intervals, aliquots of the reaction mixture were withdrawn and the amount of phosphatidylcholine hydroperoxides were measured by HPLC.

pH stability = format: physicochemical; conditions: 5.5 mM, buffer/ethanol 5:1 v/v; for remaining at 100 h, 5500 µM: read-out: Residual amounts (%) after 100 hours; for Residual amounts (%) after 100 hours: 5500 µM
Excerpt: The chromanol glycoside obtained in Examples 1 to 5 [6-hydroxy-2,5,7,8-tetramethyl chroman-2-methyl-α-D-glucopyranoside represented by the aforementioned formula (4)], the chromanol glycoside obtained in Examples 6 to 8 [6-hydroxy-2,5,7,8-tetramethyl chroman-2-ethyl-α-D-glucopyranoside represented by the aforementioned formula (7)], the chromanol glycoside obtained in Examples 4 and 5 [6-hydroxy-2,5,7,8-tetramethyl chroman-2-methyl-α-D-maltopyranoside represented by the aforementioned formula (5)], and the chromanol glycoside obtained in Example 8 [6 -hydroxy-2,5,7,8-tetramethyl chroman-2-ethyl-α-D-maltopyranoside represented by the aforementioned formula (8)] were tested for pH stability. This test was specifically performed by incubating a 5.5 mM chromanol glycoside solution (buffer/ethanol, 5:1 v/v) having a varying pH value. At regular intervals, aliquots of the reaction mixture were withdrawn and the residual amounts of chromanol glycoside were measured by HPC. For the purpose of comparison, the 2-substituted alcohols represented by the aforementioned formulas (3) and (6) and Trolox were similarly tested.
It is clearly noted from the test results that the conversion of 2-substituted alcohols into respective glycosides enhances pH stability. The buffer used for the test were 100 mM acetate buffer of pH 5.5, 100 mM phosphate buffer of pH 7.0, and 100 mM tris-HCl buffer of pH 8,5.

solubility in water = format: physicochemical; conditions: 25 °C, constant stirring at 200 rpm, HPLC; for solubility: water, read-out: solubility in water (amounts of sample dissolved in 1 ml of water)
Excerpt: The chromanol glycoside obtained in Examples 1 to 5 [6-hydroxy-2,5,7,8-tetramethyl chroman-2-methyl-α-D-glucopyranoside represented by the aforementioned formula (4)], the chromanol glycoside obtained in Examples 6 to 8 [6-hydroxy-2,5,7,8-tetramethyl chroman-2-ethyl-α-D-glucopyranoside represented by the aforementioned formula (7)], the chromanol glycoside obtained in Examples 4 and 5 [6-hydroxy-2,5,7,8-tetramethyl chroman-2-methyl-α-D-maltopyranoside represented by the aforementioned formula (5)], and the chromanol glycoside obtained in Example 8 [6-hydroxy-2,5,7,8-tetramethyl chroman-2-ethyl-α-D-maltopyranoside represented by the aforementioned formula (8)] were tested for solubility in water. Specifically, this test was performed by adding an excess amount of a given chromanol glycoside to 1 ml of water. The reaction mixture was incubated at 25° C. for […] with constant stirring at 200 rpm. After 100 hours, the reaction mixture was transferred into a membrane filter (produced by Nihon Millipore Ltd. and marketed under trademark designation of "HPLC Sample Prep C02-LG") and insoluble substances were removed by centrifugation (4,100×g, 10 minutes, 20° C.). The filtered solution was subjected to HPLC to determine the amount of chromanol glycoside remaining in the aqueous solution. For the purpose of comparison, the 2-substituted alcohols represented by the aforementioned formulas (3) and […] and Trolox were similarly tested.
The numerals given in the tables represent the amounts of sample dissolved in 1 ml of water.

[3] = acetate buffer/ethanol 5:1, pH 5.5, pH 5.5 (100 mM acetate buffer)
[4] = phosphate buffer/ethanol 5:1, pH 7, pH 7.0 (100 mM phosphate buffer)
[5] = tris-hcl buffer/ethanol 5:1, pH 8.5, pH 8.5 (100 mM tris-HCl buffer)

Compound | remaining at 100 h, 5500 µM (pH stability; [3]) | remaining at 100 h, 5500 µM (pH stability; [4]) | remaining at 100 h, 5500 µM (pH stability; [5]) | solubility (solubility in water) | antioxidant activity (methyl linoleate hydroperoxides) [1] | antioxidant activity (phosphatidylcholine hydroperoxides) [2] | other results
Cc1c(C)c2c(c(C)c1O)CCC(C)(CO[C@H]1O[C@H](CO)[C@@H](O[C@H]3O[C@H](CO)[C@@H](O)[C@H](O)[C@H]3O)[C@H](O)[C@H]1O)O2 (stereo partly drawn) [formula (5), 6-hydroxy-2,5,7,8-tetramethyl chroman-2-methyl-α-D-maltopyranoside] | 84% | 40% | 19% |  | excel 3,5-tert-butyl-4-hydroxytoluene and equal α-tocopherol | more effective antioxidants than ascorbic acid | Residual amounts (%) after 100 hours (pH stability; pH 5.5 (100 mM acetate buffer), listed as formula (5) of Example 5, 6000 min): 86%; Residual amounts (%) after 100 hours (pH stability; pH 7.0 (100 mM phosphate buffer), listed as formula (5) of Example 5, 6000 min): 44%; Residual amounts (%) after 100 hours (pH stability; pH 8.5 (100 mM tris-HCl buffer), listed as formula (5) of Example 5, 6000 min): 20%
Cc1c(C)c2c(c(C)c1O)CCC(C)(CCO[C@H]1O[C@H](CO)[C@@H](O[C@H]3O[C@H](CO)[C@@H](O)[C@H](O)[C@H]3O)[C@H](O)[C@H]1O)O2 (stereo partly drawn) [formula (8), 6-hydroxy-2,5,7,8-tetramethyl chroman-2-ethyl-α-D-maltopyranoside] | 57% | 16% | 2% | 141 mg/mL | excel 3,5-tert-butyl-4-hydroxytoluene and equal α-tocopherol | more effective antioxidants than ascorbic acid | 

Now from value to compound, other results behind:

remaining at 100 h, 5500 µM (pH stability; [3]) | remaining at 100 h, 5500 µM (pH stability; [4]) | remaining at 100 h, 5500 µM (pH stability; [5]) | solubility (solubility in water) | Compound | antioxidant activity (methyl linoleate hydroperoxides) [1] | antioxidant activity (phosphatidylcholine hydroperoxides) [2] | other results
91% | 41% | 20% | ~1000 mg/mL | Cc1c(C)c2c(c(C)c1O)CCC(C)(CO[C@H]1O[C@H](CO)[C@@H](O)[C@H](O)[C@H]1O)O2 (stereo partly drawn) [formula (4), 6-hydroxy-2,5,7,8-tetramethyl chroman-2-methyl-α-D-glucopyranoside] | excel 3,5-tert-butyl-4-hydroxytoluene and equal α-tocopherol | more effective antioxidants than ascorbic acid | solubility in water (amounts of sample dissolved in 1 ml of water) (solubility in water; listed as formula (4) of Example 3): About 1000 mg/ml; solubility in water (amounts of sample dissolved in 1 ml of water) (solubility in water; listed as formula (4) of Example 4): About 1000 mg/ml; solubility in water (amounts of sample dissolved in 1 ml of water) (solubility in water; listed as formula (4) of Example 5): About 1000 mg/ml; Residual amounts (%) after 100 hours (pH stability; pH 5.5 (100 mM acetate buffer), listed as formula (4) of Example 2, 6000 min): 85%; Residual amounts (%) after 100 hours (pH stability; pH 5.5 (100 mM acetate buffer), listed as formula (4) of Example 3, 6000 min): 89%; Residual amounts (%) after 100 hours (pH stability; pH 5.5 (100 mM acetate buffer), listed as formula (4) of Example 4, 6000 min): 84%; Residual amounts (%) after 100 hours (pH stability; pH 5.5 (100 mM acetate buffer), listed as formula (4) of Example 5, 6000 min): 88%; Residual amounts (%) after 100 hours (pH stability; pH 7.0 (100 mM phosphate buffer), listed as formula (4) of Example 2, 6000 min): 42%; Residual amounts (%) after 100 hours (pH stability; pH 7.0 (100 mM phosphate buffer), listed as formula (4) of Example 3, 6000 min): 43%; Residual amounts (%) after 100 hours (pH stability; pH 7.0 (100 mM phosphate buffer), listed as formula (4) of Example 4, 6000 min): 44%; Residual amounts (%) after 100 hours (pH stability; pH 7.0 (100 mM phosphate buffer), listed as formula (4) of Example 5, 6000 min): 43%; Residual amounts (%) after 100 hours (pH stability; pH 8.5 (100 mM tris-HCl buffer), listed as formula (4) of Example 2, 6000 min): 19%; Residual amounts (%) after 100 hours (pH stability; pH 8.5 (100 mM tris-HCl buffer), listed as formula (4) of Example 4, 6000 min): 19%; Residual amounts (%) after 100 hours (pH stability; pH 8.5 (100 mM tris-HCl buffer), listed as formula (4) of Example 5, 6000 min): 21%
73% | 29% | 7% | 1 mg/mL | Cc1c(C)c2c(c(C)c1O)CCC(C)(CO)O2 (racemic) [formula (3), reference compound] |  |  | 
63% | 19% | 3% | 0.1 mg/mL | Cc1c(C)c2c(c(C)c1O)CCC(C)(CCO)O2 (racemic) [formula (6), reference compound] |  |  | 
